Experimental data as given in patent US12473278B2 (Industry—University Cooperation Foundation Hangyang …, priority 2019, dated 2025).
Read-outs that look alike come from different tables or passages of the source.

Assays:
FGFR3 = FGFR3 (Homo sapiens (Human), UniProt P22607); experiment: Kinase panel screening; conditions: read-out: % inhibition rate
Description: (§1) Measurement of Inhibitory Activity Against Various Protein Kinases

EGFR = EGFR (Homo sapiens (Human), UniProt P00533); experiment: Kinase panel screening; conditions: read-out: % inhibition rate
Description: as §1

MEK1 = MEK1 (Homo sapiens (Human), UniProt Q02750); experiment: Kinase panel screening; conditions: read-out: % inhibition rate
Description: as §1

AKT1 = AKT1 (Homo sapiens (Human), UniProt P31749); experiment: Kinase panel screening; conditions: read-out: % inhibition rate
Description: as §1

LYN = LYN (Homo sapiens (Human), UniProt P07948); experiment: Kinase panel screening; conditions: read-out: % inhibition rate
Description: as §1

ERK1 = ERK1 (Homo sapiens (Human), UniProt P27361); experiment: Kinase panel screening; conditions: read-out: % inhibition rate
Description: as §1

BRAF = BRAF (Homo sapiens (Human), UniProt P15056); experiment: Kinase panel screening; conditions: read-out: % inhibition rate
Description: as §1

CDK1/cyclinB = CDK1/cyclinB (Homo sapiens (Human), UniProt P06493); experiment: Kinase panel screening; conditions: read-out: % inhibition rate
Description: as §1

CDK2/cyclin E = CDK2/cyclin E (Homo sapiens (Human), UniProt P24941); experiment: Kinase panel screening; type: biochemical; conditions: read-out: % inhibition rate
FMS = FMS (Homo sapiens (Human), UniProt P07333); experiment: Kinase panel screening; type: biochemical; conditions: read-out: % inhibition rate
c-MET = c-MET (Homo sapiens (Human), UniProt P08581); experiment: Kinase panel screening; conditions: read-out: % inhibition rate
Description: as §1

JNK3 = JNK3 (Homo sapiens (Human), UniProt P53779); experiment: Kinase panel screening; conditions: read-out: % inhibition rate
Description: as §1

BTK = BTK (Homo sapiens (Human), UniProt Q06187); experiment: Kinase panel screening; conditions: read-out: % inhibition rate
Description: as §1

c-Src = c-Src (Homo sapiens (Human), UniProt P12931); experiment: Kinase panel screening; conditions: read-out: % inhibition rate
Description: as §1

MTOR/FRAP1 = MTOR/FRAP1 (Homo sapiens (Human), UniProt P42345); experiment: Kinase panel screening; type: biochemical; conditions: read-out: % inhibition rate
Aurora A = Aurora A (Homo sapiens (Human), UniProt O14965); experiment: Kinase panel screening; conditions: read-out: % inhibition rate
Description: as §1

ABL1 = ABL1 (Homo sapiens (Human), UniProt P00519); experiment: Kinase panel screening; type: biochemical; conditions: read-out: % inhibition rate
FLT3 [1] = target: T1, FLT3 (Homo sapiens (Human), UniProt P36888); experiment: Measurement of FLT3 enzyme activity; type: biochemical
Description: Measurement of FLT3 Enzyme Activity
A change in FLT3 enzyme activity by treatment with the benzimidazole derivatives of the following Table 1 according to the present invention was confirmed by IC50.

KDR/VEGFR2 = KDR/VEGFR2 (Homo sapiens (Human), UniProt P35968); experiment: Kinase panel screening; type: biochemical; conditions: read-out: % inhibition rate
PKA = PKA (Homo sapiens (Human), UniProt P17612); experiment: Kinase panel screening; conditions: read-out: % inhibition rate
Description: as §1

P38a/MAPK14 = P38a/MAPK14 (Homo sapiens (Human), UniProt Q16539); experiment: Kinase panel screening; conditions: read-out: % inhibition rate
Description: as §1

BRAF (V599E) = BRAF (V599E) (Homo sapiens (Human), UniProt P15056, V600E); experiment: Kinase panel screening; conditions: read-out: % inhibition rate
Description: as §1

RON/MSTIR = RON/MSTIR (Homo sapiens (Human), UniProt Q04912); experiment: Kinase panel screening; conditions: read-out: % inhibition rate
Description: as §1

c-Kit = c-Kit (Homo sapiens (Human), UniProt P10721); experiment: Kinase panel screening; conditions: read-out: % inhibition rate
Description: as §1

LCK = LCK (Homo sapiens (Human), UniProt P06239); experiment: Kinase panel screening; type: biochemical; conditions: read-out: % inhibition rate
PLK1 = PLK1 (Homo sapiens (Human), UniProt P53350); experiment: Kinase panel screening; type: biochemical; conditions: read-out: % inhibition rate
IGFIR = IGFIR (Homo sapiens (Human), UniProt P08069); experiment: Kinase panel screening; conditions: read-out: % inhibition rate
Description: as §1

ROS/ROS1 = ROS/ROS1 (Homo sapiens (Human), UniProt P08922); experiment: Kinase panel screening; conditions: read-out: % inhibition rate
Description: as §1

FLT1/VEGFR1 = FLT1/VEGFR1 (Homo sapiens (Human), UniProt P17948); experiment: Kinase panel screening; conditions: read-out: % inhibition rate
Description: as §1

GSK3b = GSK3b (Homo sapiens (Human), UniProt P49841); experiment: Kinase panel screening; type: biochemical; conditions: read-out: % inhibition rate
ALK = ALK (Homo sapiens (Human), UniProt Q9UM73); experiment: Kinase panel screening; conditions: read-out: % inhibition rate
Description: as §1

JAK3 = JAK3 (Homo sapiens (Human), UniProt P52333); experiment: Kinase panel screening; conditions: read-out: % inhibition rate
Description: as §1

RAFI = RAFI (Homo sapiens (Human), UniProt P04049); experiment: Kinase panel screening; conditions: read-out: % inhibition rate
Description: as §1

FLT3 [2] = target: T1, FLT3; experiment: Kinase panel screening; conditions: read-out: % inhibition rate
Description: as §1

SYK = SYK (Homo sapiens (Human), UniProt P43405); experiment: Kinase panel screening; type: biochemical; conditions: single dose of 10 μM, read-out: % inhibition rate

T1 sequence (P36888 27-993): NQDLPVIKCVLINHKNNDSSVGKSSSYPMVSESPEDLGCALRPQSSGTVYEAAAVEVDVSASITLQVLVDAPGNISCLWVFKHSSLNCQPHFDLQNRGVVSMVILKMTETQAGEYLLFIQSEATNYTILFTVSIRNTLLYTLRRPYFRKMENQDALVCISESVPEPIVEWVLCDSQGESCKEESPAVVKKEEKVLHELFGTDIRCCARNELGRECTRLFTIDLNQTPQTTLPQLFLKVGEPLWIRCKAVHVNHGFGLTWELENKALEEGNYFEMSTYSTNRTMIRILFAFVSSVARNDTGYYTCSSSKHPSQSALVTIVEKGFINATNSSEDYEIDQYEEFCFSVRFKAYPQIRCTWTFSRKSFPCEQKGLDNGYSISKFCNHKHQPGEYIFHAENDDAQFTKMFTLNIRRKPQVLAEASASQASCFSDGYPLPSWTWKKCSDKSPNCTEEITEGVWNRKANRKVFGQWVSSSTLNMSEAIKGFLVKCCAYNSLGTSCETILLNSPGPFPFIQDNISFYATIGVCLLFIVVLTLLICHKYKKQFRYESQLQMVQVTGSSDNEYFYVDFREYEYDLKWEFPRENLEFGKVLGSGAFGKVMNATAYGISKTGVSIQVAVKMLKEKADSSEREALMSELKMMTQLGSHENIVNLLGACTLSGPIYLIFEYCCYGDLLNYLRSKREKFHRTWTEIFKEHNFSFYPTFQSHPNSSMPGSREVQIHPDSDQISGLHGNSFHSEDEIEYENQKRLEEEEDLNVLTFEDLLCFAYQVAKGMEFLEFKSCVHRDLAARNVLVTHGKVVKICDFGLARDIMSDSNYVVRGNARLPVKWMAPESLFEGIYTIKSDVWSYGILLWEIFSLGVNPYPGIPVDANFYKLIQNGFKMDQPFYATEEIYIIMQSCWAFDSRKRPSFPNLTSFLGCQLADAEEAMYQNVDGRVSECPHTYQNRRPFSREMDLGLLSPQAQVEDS
Sequence of BTK (Q06187 whole entry, species assumed): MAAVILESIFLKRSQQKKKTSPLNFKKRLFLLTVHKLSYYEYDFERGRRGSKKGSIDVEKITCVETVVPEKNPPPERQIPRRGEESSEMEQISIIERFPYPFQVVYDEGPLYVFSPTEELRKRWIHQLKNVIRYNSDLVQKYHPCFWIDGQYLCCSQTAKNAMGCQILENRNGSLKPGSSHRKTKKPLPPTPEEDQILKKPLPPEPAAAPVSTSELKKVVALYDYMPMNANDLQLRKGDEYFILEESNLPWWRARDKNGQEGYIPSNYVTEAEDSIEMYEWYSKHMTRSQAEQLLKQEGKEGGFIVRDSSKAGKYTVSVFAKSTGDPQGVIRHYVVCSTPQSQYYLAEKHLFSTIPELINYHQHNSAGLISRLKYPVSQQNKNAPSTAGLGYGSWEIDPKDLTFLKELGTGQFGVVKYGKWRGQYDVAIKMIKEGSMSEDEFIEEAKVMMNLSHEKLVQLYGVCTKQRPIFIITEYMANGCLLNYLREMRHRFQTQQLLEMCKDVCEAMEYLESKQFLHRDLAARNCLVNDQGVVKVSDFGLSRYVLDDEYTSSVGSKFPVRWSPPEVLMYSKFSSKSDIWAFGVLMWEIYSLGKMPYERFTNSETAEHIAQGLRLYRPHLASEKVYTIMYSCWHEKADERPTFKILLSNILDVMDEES
Sequence of RON/MSTIR (Q04912 25-1400): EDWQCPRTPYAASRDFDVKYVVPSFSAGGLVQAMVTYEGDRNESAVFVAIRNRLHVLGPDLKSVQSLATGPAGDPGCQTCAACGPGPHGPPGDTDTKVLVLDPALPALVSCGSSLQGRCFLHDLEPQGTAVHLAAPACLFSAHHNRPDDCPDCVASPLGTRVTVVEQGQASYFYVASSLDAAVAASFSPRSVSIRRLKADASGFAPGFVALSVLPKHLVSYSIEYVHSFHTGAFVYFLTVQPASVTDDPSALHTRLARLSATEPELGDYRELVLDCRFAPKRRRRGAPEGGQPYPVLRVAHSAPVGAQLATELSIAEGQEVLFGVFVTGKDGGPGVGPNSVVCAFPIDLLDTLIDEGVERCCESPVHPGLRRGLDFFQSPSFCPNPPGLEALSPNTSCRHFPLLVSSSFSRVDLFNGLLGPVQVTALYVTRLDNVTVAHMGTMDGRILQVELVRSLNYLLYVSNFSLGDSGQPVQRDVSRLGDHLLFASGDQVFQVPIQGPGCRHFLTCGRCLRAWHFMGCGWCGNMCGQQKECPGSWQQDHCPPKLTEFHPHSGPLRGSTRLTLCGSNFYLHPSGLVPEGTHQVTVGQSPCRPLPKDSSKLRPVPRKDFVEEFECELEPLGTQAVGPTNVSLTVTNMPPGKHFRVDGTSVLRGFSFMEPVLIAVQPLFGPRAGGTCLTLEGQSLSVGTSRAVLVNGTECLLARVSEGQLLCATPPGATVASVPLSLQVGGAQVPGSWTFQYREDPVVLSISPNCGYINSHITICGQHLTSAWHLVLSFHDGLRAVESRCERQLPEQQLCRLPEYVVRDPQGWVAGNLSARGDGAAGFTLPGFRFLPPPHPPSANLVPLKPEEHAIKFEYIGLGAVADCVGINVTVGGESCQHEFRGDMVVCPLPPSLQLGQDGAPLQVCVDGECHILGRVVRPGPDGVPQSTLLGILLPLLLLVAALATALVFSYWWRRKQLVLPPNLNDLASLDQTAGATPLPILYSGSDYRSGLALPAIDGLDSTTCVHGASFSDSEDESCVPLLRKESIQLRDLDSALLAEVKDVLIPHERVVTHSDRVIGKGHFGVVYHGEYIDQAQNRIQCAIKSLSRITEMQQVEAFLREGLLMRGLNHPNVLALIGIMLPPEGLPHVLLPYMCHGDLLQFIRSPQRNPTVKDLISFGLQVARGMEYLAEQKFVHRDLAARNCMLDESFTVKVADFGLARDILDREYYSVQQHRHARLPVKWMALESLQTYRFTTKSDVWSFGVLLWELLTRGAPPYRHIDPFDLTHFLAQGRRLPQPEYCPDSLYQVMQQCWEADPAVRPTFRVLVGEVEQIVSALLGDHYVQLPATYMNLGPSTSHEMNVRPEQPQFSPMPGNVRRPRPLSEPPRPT
Sequence of c-Src (P12931 whole entry, looked up, species assumed): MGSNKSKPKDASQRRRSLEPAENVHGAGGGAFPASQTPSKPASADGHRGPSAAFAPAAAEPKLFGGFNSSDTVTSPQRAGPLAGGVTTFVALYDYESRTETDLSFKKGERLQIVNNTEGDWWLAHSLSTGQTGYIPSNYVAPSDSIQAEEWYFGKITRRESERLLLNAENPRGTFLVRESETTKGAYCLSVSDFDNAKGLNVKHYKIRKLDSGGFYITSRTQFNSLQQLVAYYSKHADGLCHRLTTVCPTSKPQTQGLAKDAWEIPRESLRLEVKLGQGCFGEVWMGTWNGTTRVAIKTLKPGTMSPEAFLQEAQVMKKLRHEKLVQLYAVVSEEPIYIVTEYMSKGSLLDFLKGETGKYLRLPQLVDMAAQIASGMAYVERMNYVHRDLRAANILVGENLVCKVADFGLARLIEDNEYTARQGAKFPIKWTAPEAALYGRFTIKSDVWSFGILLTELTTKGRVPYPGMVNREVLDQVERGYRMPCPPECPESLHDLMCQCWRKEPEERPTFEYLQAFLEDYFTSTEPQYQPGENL
Sequence of LYN (P07948 whole entry): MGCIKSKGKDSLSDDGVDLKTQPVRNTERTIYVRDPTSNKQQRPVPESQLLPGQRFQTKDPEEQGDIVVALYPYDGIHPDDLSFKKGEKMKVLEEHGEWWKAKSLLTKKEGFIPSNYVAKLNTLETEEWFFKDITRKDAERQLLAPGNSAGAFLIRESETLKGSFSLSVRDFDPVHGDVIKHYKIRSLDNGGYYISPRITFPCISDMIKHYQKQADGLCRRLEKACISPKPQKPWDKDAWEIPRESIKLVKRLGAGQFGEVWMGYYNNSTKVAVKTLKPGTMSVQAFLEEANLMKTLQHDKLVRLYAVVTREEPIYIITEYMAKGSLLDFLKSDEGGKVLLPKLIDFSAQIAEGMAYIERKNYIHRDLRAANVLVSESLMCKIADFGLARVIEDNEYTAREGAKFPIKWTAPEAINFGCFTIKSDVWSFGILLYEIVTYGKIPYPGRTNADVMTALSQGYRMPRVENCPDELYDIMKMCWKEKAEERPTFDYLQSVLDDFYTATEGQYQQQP
Sequence of AKT1 (P31749 whole entry, species assumed): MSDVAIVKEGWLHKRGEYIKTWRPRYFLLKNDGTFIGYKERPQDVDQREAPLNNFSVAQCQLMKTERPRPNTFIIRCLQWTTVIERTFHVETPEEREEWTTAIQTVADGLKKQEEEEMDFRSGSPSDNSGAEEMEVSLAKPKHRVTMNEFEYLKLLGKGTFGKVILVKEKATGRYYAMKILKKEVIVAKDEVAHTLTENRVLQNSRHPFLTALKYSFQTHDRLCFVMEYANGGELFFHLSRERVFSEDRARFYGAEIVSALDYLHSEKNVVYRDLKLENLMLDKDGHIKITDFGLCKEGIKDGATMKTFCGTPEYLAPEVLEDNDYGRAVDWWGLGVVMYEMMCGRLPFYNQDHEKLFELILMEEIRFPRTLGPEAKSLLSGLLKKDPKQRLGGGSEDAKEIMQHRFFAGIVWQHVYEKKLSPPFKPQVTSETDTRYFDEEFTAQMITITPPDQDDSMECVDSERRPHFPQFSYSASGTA
Sequence of GSK3b (P49841 whole entry, species assumed): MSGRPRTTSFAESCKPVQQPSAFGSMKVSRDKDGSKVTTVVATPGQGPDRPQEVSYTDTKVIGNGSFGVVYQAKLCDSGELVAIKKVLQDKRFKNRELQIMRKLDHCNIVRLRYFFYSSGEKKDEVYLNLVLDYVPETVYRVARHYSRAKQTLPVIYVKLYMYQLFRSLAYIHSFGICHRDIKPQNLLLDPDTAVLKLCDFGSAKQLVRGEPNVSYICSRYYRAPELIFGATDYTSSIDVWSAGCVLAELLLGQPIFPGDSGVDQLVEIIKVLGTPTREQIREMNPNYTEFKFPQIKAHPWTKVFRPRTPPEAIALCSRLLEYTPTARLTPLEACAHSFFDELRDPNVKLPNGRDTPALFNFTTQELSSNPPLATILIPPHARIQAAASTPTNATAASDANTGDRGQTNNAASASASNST

SMILES: Cc1oncc1C(=O)Nc1ccc2[nH]c(-c3cc(N4CCOCC4)cc(C(F)(F)F)c3)nc2c1 [Compound 5b, 5-methyl-N-(2-(3-morpholino-5-(trifluoromethyl)phenyl)-1H-benz[d]imidazol-5-yl)isoxazole-4-carboxamide]
- inhibition at 10 µM (FGFR3): 0%
- inhibition at 10 µM (EGFR): 0%
- inhibition at 10 µM (MEK1): 0%
- inhibition at 10 µM (AKT1): 10.9%
- inhibition at 10 µM (LYN): 0%
- inhibition at 10 µM (ERK1): 0%
- inhibition at 10 µM (BRAF): 0%
- inhibition at 10 µM (CDK1/cyclinB): 2.76%
- inhibition at 10 µM (CDK2/cyclin E): 0%
- inhibition at 10 µM (FMS): 0%
- inhibition at 10 µM (c-MET): 0%
- inhibition at 10 µM (JNK3): 0%
- inhibition at 10 µM (BTK): 19.3%
- inhibition at 10 µM (c-Src): 0%
- inhibition at 10 µM (MTOR/FRAP1): 0%
- inhibition at 10 µM (Aurora A): 6.4%
- inhibition at 10 µM (ABL1): 0%
- IC50 (FLT3 [1]; FLT3 enzyme activity, read-out: FLT3 (IC50)): 3 to 10 µM
- IC50 (FLT3 [1]; FLT3 kinase activity, read-out: IC50 against FLT3): 7.94 µM
- inhibition at 10 µM (KDR/VEGFR2): 0%
- inhibition at 10 µM (PKA): 2.38%
- inhibition at 10 µM (P38a/MAPK14): 0%
- inhibition at 10 µM (BRAF (V599E)): 25.2%
- inhibition at 10 µM (RON/MSTIR): 0%
- inhibition at 10 µM (c-Kit): 0%
- inhibition at 10 µM (LCK): 0%
- inhibition at 10 µM (PLK1): 2.86%
- inhibition at 10 µM (IGFIR): 0%
- inhibition at 10 µM (ROS/ROS1): 7.4%
- inhibition at 10 µM (FLT1/VEGFR1): 0%
- inhibition at 10 µM (GSK3b): 2.8%
- inhibition at 10 µM (ALK): 0%
- inhibition at 10 µM (JAK3): 0.94%
- inhibition at 10 µM (RAFI): 15.7%
- inhibition at 10 µM (FLT3 [2]): 73%
- inhibition at 10 µM (SYK): 2.18%
